The term melting point denotes the temperature, or range, at which the solid turns liquid.

Counter-ions that a name gives are not always drawn.

`COc1ccc(C(=O)Nc2nc3ccc(NS(=O)(=O)O)cc3c(NCc3ccccc3)c2C#N)cc1` (as salt: ammonium) [Example 11, {4-(Benzylamino)-3-cyano-2-[(4-methoxybenzoyl)amino]quinolin-6-yl}sulfamic acid] came in with a melting point of 220 to 222 °C.
The value for `COc1ccc(C(=O)Nc2nc3ccc(N)cc3c(NCc3ccccc3)c2C#N)cc1` [Example 7, N-[6-amino-4-(benzylamino)-3-cyanoquinolin-2-yl]-4-methoxybenzamide] was 228 to 230 °C; that for `CNc1ccc2nc(NC(=O)c3ccc(OC)cc3)c(C#N)c(NCc3ccccc3)c2c1` [Example 9, N-{4-(benzylamino)-3-cyano-6-(methylamino)quinolin-2-yl}-4-methoxybenzamide] was 237 to 240 °C; that for `COc1ccc(C(=O)Nc2nc3ccc(NC=O)cc3c(NCc3cccs3)c2C#N)cc1` [Example 10, N-{3-Cyano-6-(formylamino)-4-[(2-thienylmethyl)amino]quinolin-2-yl]-4-methoxybenzamide] was 223 to 226 °C.

The values above are taken from patent publication US7547696B2, “Aminoquinoline derivatives and their use as adenosine A3 ligands” (sanofi-aventis, priority 2003, dated 2009).
